In patent US6528517B1, “Synthesis of quinobenzoxazine analogues with topoisomerase II and quadruplex interactions for use as antineoplastic agents” (Board of Regents, The University of Texas System, priority 1998, dated 2003):

Tests used:
Drosophila topo II = target: T1, Drosophila topo II (Drosophila melanogaster, UniProt P15348); assay: Topo II cleavage reaction; assay type: biochemical; conditions: up to 10 μM
T1 construct: purchased Amersham
T1 sequence (P15348 1-1447): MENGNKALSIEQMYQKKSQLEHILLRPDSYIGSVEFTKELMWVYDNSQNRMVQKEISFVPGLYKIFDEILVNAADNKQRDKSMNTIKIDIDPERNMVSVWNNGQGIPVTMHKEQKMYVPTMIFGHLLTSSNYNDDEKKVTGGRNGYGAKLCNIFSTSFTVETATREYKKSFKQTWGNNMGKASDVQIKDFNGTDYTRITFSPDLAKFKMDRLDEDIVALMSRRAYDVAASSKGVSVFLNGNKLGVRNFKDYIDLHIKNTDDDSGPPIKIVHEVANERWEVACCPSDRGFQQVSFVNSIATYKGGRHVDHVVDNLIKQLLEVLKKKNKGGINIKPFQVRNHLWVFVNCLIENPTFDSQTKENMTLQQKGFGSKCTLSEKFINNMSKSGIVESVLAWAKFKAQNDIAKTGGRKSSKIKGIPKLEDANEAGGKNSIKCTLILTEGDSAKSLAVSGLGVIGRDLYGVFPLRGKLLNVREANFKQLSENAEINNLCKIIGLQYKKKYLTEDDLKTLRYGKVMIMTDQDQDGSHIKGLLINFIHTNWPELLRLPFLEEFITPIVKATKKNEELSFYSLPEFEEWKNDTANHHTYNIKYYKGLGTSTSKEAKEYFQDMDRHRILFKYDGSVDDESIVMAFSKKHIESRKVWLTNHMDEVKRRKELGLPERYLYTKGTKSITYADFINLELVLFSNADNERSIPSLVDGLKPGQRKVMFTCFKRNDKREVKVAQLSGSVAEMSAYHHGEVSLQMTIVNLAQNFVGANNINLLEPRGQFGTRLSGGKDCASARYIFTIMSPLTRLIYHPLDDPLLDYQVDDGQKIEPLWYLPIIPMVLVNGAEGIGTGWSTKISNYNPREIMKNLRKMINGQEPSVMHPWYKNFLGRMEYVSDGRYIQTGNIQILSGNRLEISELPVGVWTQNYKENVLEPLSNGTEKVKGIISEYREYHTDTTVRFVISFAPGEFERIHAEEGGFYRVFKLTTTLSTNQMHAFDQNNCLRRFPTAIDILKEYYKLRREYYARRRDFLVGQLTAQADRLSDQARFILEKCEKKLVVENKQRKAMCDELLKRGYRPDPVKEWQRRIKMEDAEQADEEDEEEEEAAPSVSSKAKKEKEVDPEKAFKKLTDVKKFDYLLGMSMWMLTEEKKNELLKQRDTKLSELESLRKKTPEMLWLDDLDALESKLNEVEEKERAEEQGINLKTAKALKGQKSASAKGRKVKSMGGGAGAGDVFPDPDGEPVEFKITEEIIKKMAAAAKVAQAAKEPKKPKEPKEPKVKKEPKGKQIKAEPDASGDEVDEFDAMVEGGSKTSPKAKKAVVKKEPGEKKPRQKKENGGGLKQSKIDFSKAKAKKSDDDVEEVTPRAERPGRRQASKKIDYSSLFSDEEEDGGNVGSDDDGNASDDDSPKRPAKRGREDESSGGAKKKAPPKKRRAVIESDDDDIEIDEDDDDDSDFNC
Description: FIGS. 5, A-B. Effect of A-62176 (I in FIG. 2) on DNA cleavage by topo II in the presence of ATP. (A) Autoradiogram of a 12% denaturing polyacrylamide gel showing topo II-mediated cleavage pattern in the presence of A-62176. The cleavage reaction was done in a reaction buffer containing 10 mM imidazole-HCl (pH 6.0), 10 mM MgCl2, 50 mM KCl, and 1 mM ATP, as described in the Materials and Methods section. Lanes 1-7 contain 20 units of Drosophila topo II. Lane 1 contains no drug. Lanes 2-7 contain 0.2, 0.5, 1, 2, 5 and 10 μM of A-62176, respectively. (B) Topo II cleavage products indicated by arrows in (A) were quantitated using a PhosphorImager and analyzed using ImageQuanNT software (Molecular Dynamics). The intensity of the topo II-mediated cleavage was determined from the volume of the bands [indicated by arrows in (A)] normalized by the total radioactivity in each lane.
5′^32P-labeled DNA was incubated with Drosophila topo II in 20 μl of a reaction buffer [10 mM imidazole-HCl (pH 6.0), 10 mM MgCl2, 50 mM KCl, and 1 mM ATP] at 30° C. for 10 min in the presence of various amounts of A-62176. Reactions were terminated by adding SDS to 1%, and topo II was removed by proteinase K digestion (100 μg/ml) at 42° C. for 1 hr followed by phenol/chloroform extraction and ethanol precipitation.

human topoisomerase II = target: T2, human topoisomerase II (Homo sapiens, UniProt P11388); assay: Decatenation assay (catenated to decatenated KDNA); assay type: biochemical; conditions: drug concentration that inhibits 50% of conversion of catenated to decatenated KDNA; read-out: topoisomerase II inhibition IC50
T2 construct: purchased TopoGEN, Inc
Description: Kinetoplast DNA (KDNA), human topoisomerase II (170 KDa form), and DNA Unwinding Kit including supercoiled pHOT1 DNA, relaxed DNA marker, buffers, and human topoisomerase I were purchased from TopoGEN, Inc. Agarose was purchased from Fisher. Quinobenzoxazine A-62176 (S-enantiomer) was provided by Abbott Laboratories or prepared by published procedure (Chu and Maleczka, Jr., 1987).
0.25 μg of KDNA was incubated with various concentrations of the quinobenzoxazines in a 20-μl reaction mixture containing 50 mM Tris-HCl (pH 8), 120 mM KCl, 10 mM MgCl2, and 0.5 mM each of ATP, dithiothreitol, and […] BSA for 10 min. Two units of human topoisomerase II (170 KDa form) were added to the mixture, which was then incubated at 37° C. for 30 min. The reaction was terminated with 0.1 volume of stop buffer (5% sarkosyl, 0.025% bromophenol blue, and 50% glycerol). The decatenation products were analyzed on 1% agarose gels run with 0.5 μg/ml ethidium bromide. The gels were scanned by FluoroImager and analyzed by ImageQuaNT software (Molecular Dynamics).

T2 sequence (P11388 whole entry): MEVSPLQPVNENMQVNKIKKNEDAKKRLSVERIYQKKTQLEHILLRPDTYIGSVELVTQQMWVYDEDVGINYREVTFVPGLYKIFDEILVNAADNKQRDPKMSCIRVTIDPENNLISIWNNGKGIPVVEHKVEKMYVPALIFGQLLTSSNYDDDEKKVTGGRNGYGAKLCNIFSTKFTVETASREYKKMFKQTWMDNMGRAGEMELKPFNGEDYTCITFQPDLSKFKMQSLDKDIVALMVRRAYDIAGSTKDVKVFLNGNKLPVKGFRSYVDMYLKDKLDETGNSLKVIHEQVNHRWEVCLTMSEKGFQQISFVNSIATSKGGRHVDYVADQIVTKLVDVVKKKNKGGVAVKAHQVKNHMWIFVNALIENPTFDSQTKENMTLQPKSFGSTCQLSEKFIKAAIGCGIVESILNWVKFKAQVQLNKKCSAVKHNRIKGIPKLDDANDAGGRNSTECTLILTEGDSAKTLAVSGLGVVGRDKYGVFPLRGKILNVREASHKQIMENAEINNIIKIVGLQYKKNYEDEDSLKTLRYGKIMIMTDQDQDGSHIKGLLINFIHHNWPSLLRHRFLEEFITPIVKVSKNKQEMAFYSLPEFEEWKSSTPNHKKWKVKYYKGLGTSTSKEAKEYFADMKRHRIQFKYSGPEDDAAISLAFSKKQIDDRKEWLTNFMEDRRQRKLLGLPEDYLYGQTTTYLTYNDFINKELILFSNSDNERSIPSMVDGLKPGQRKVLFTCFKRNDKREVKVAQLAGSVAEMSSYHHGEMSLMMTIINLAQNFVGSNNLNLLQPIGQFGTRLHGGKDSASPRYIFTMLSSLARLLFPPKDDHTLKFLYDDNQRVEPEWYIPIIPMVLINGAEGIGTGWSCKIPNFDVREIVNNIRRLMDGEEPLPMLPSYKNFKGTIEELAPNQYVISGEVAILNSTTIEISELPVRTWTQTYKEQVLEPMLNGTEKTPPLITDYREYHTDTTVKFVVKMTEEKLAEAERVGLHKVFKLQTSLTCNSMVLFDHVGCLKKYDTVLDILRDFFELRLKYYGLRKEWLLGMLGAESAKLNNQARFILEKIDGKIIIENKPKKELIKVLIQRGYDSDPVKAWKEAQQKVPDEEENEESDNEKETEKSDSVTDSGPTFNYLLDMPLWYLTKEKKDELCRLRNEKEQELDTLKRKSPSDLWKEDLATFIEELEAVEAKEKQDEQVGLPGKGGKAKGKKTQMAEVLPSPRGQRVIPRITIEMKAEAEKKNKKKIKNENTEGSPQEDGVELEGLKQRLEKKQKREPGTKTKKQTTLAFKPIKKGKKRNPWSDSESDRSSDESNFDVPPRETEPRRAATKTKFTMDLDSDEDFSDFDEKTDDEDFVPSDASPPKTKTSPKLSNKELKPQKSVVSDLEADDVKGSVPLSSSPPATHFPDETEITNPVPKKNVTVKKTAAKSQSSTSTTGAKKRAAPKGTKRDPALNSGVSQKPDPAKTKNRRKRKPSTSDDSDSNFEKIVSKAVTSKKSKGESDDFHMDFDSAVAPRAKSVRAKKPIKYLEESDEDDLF

topo II-mediated cleavage (Drosophila topo II): enhance | IC50 (human topoisomerase II): 0.51 µM
SMILES: N[C@H]1CCN(c2c(F)cc3c(=O)c(C(=O)O)cn4c3c2Oc2ccccc2-4)C1 [Compound A-62176, 1-(3-aminopyrrolidin-1-yl)-2-fluoro-4-oxo-4H-quino[2,3,4-i,j][1,4]benzoxazine-5-carboxylic acid, reference compound]
